Assay results published in patent publication US20250179437A1, “L[…] FOR PRODUCING PRIMITIVE STREAK CELLS” (UNIVERSITY HEALTH NETWORK, priority 2023, published 2025).

Assays:
Type in all cases: cell-based, human
H1 hPSC line [1] = test: Differentiation of hPSCs into primitive streak and definitive endoderm with or without Latrunculin A (flow cytometry)
Description: Human pluripotent stem cell (hPSC) lines: For protocol optimization, the H1 hPSC line^1, purchased from WiCell Research Institute (Madison, USA) was employed. This work has received approval from the Stem Cell Oversight Committee (SCOC) as the focus of a Canadian Institutes of Health Research (CIHR) Canada Graduate Scholarship-Doctoral (CGS-D) award.
hPSC expansion and passage: Cells were cryopreserved in a media composed of 50% IMDM (Life Technologies #12440) or StemMACS iPS-brew XF (Miltenyi Biotec #130-104-368), 40% Fetal Bovine Serum (FBS, Gibco #12483-020), and 10% DMSO (Millipore Sigma #D2650). Cryopreserved hPSCs were thawed in DMEM:F12 (Wisent #319-085-CL) at a ratio of 1 mL cells: 9 mL media, centrifuged at 1000 revolutions per minute (RPM) for 5 minutes, and resuspended in StemMACS iPS-brew XF with 10 μM ROCK1/2 inhibitor (Y-27652, Tocris Biosciences #1254). Cells were maintained in monolayer culture in StemMACS iPS-brew XF media with daily media changes. Upon reaching full confluency, cells were passaged by single cell dissociation using TrypLE (Life Technologies #12605) with 1% DNase 1 mg/mL (Calbiochem 260913), centrifuged for 5 min at 1000 RPM, and resuspended in StemMACS iPS-brew XF with 10 μM ROCK1/2 inhibitor (Y-27652, Tocris Biosciences #1254). Cells were split at a cell line-specific ratio to ensure confluency within 2-3 days, upon which differentiation was initiated.
hPSC differentiation: On day 0, confluent cultures of hPSCs in monolayer format were washed with Calcium- and Magnesium-free dPBS (Corning #20-031-CV) and fed with media with or without Latrunculin A to generate primitive streak (day 1) and definitive endoderm (day 3). The media used at day 0, 1, and 2 are specified in the tables below (Tables 1.1-1.2). When reagents were obtained from suppliers as liquids, the concentration is provided as a percentage of reagent volume/base media volume. When reagents were provided as desiccated powders that required reconstitution, the concentration is specified in either mass or molarity per unit volume of fully reconstituted media. All media were supplemented with 1% vol/vol Gibco Penicillin-Streptomycin (ThermoFisher Scientific #15070063). […]
Dissociated cells in suspension culture were filtered through a 35 micrometer cell strainer, centrifuged, and the supernatant was discarded. […] Cells were analyzed on a BD LSRFortessa flow cytometer. […] Experimental data was analyzed using FlowJo Software (BD).
Cell-surface flow cytometry of hPSC-derived cells: Dissociated cells were directly incubated with directly conjugated primary antibodies (table 1.3) in staining buffer for 20 minutes at room temperature. Cells were then washed once, and resuspended in staining buffer containing 1:100,000 DAPI (Biotium #40043) and directly analyzed by flow cytometry. […]

H1 hPSC line [2] = test: Differentiation of hPSC-derived definitive endoderm to pancreatic progenitors and beta-like cells (flow cytometry)
Description: (§1) hPSC differentiation: On day 0, confluent cultures of hPSCs in monolayer format were washed with Calcium- and Magnesium-free dPBS (Corning #20-031-CV) and fed with media with or without Latrunculin A to generate primitive streak (day 1) and definitive endoderm (day 3). The media used at day 0, 1, and 2 are specified in the tables below (Tables 1.1-1.2). When reagents were obtained from suppliers as liquids, the concentration is provided as a percentage of reagent volume/base media volume. When reagents were provided as desiccated powders that required reconstitution, the concentration is specified in either mass or molarity per unit volume of fully reconstituted media. All media were supplemented with 1% vol/vol Gibco Penicillin-Streptomycin (ThermoFisher Scientific #15070063).
(§2) Following definitive endoderm formation, cells were treated with differentiation media to generate either pancreatic or lung cells.
In an embodiment, the method comprises steps for differentiate the endodermal cell population to pancreatic cells. For example, as described herein differentiation from a an endodermal cell at day 3 differentiation to pancreatic lineages involves a series of steps that will differentiate cells to pancreatic progenitors cells at day 12-13 as described by Nostro et al 2015^2 or Yung and Poon 2019^3 and endocrine cells from day 20 onwards as described by Rezania et al 20144, Pagliuca et al., 2014^5, Hogrebe et al. 2020^6 or Balboa et al., 2022^7, where typically stage 1 is known to generate definitive endoderm, stage 4 is known to generate pancreatic progenitors and stage 6 is known to generate islet-like cells. Stage 2 can span for example 2 to 3 days and stage 3 can span for example 1 to 4 days. Stage 2 for example can include contacting the population to be differentiated (e.g. the Stage 1 endoderm cells) with Fibroblast Growth Factor 10 (FGF10), optionally wingless-type MMTV integration site family member 3A (Wnt3a), optionally Retinoic acid (RA), optionally Activin A, and optionally Dorsomorphin to produce Stage 2 differentiated cells. […]

H1 hPSC line [3] = test: Differentiation of hPSC-derived definitive endoderm to NKX2-1+ lung progenitors (flow cytometry, immunofluorescence); conditions: vs definitive endoderm generated in the absence of LatA
Description: as §1, §2
In an embodiment, the method comprises steps for differentiate the endodermal cell population to lung cells. […]
Dissociated cells in suspension culture were filtered through a 35 micrometer cell strainer, centrifuged, and the supernatant was discarded. […] Cells were analyzed on a BD LSRFortessa flow cytometer. […] Experimental data was analyzed using FlowJo Software (BD). […]

[4] = day 13, vs control without LatA

## C/C1=C/C(=O)O[C@@H]2C[C@@H](CC[C@H](C)/C=C\C=C\CC1)O[C@@](O)([C@@H]1CSC(=O)N1)C2 [Latrunculin A]
H1 hPSC line [1]; Latrunculin A-treated hPSCs
  efficiency of primitive streak cell generation: high efficiencies
H1 hPSC line [1]; high-density hPSCs, MEF-free, LatA at day 0, 24 hours after starting differentiation
  BRA+ primitive streak cells generated: nearly pure populations
H1 hPSC line [1]; high-density hPSCs, day 3 of differentiation, vs control without LatA
  frequency of FOXA2+SOX17+ definitive endoderm (DE)-like cells: significantly higher frequencies
H1 hPSC line [1]; high-density vs low-density hPSCs, LatA treatment at day 0
  impairment of high-density cells in their ability to generate BRA+ cells: completely abrogated
H1 hPSC line [2]; [4]
  PDX1−NKX6-1− cells: greatly reduced
  frequency of PDX1+NKX6.1+ hPSC-derived pancreatic progenitors: greater frequency
H1 hPSC line [2]; day 23 of differentiation, vs control protocol
  frequency of NKX6-1+CPEP+ beta-like cells: greater frequency
H1 hPSC line [3]
  frequency of NKX2-1+ lung progenitors: much higher frequencies
